Test results taken from paper PMC9499525, “Tissue-restricted inhibition of mTOR using chemical genetics” (Proceedings of the National Academy of Sciences of the …, 2022).

Key:
[1] = biological target: T1, FKBP12-HA (wild-type) / GST-mTOR FRB domain ternary complex (Homo sapiens, UniProt P42345+P62942); assay: TR-FRET ternary complex formation, wild-type FKBP12 with mTOR FRB; assay type: binding; conditions: wild-type FKBP12 + mTOR FRB, n = 3, read-out: EC50 of ternary complex induction, wild-type FKBP12
T1 construct: recombinant HA-tagged wild-type or V55G mutant FKBP12 with GST-tagged mTOR FRB domain; 8xHis (cleaved yes); made in house; host or cells: E. coli BL21 (DE3) for FKBP12
Experimental: TR-FRET assay was performed using recommended conditions from Cisbio with slight modifications. FKBP12-HA, FKBP12 V55G-HA, and GST-mTORFRB recombinant proteins were each diluted to 5 nM in assay buffer (20 mM HEPES pH 7.5, 150 mM NaCl, 0.05% Tween-20, 0.1% bovine serum albumin [BSA], 0.5 mM dithiothreitol [DTT]). Anti-GST-Tb (Cisbio) and Anti-HA-XL665 (Cisbio) were diluted to 0.625 µg/mL and 5 µg/mL, respectively, in assay buffer. Rapa* compounds and FK506 were diluted to 50 µM and rapamycin to 5 µM in assay buffer containing 5% DMSO, and threefold serial dilution series were made from these solutions. […] Time-resolved fluorescence was read on a Tecan Spark 20M plate reader with the following parameters: Lag time: 60 µs; Integration time: 500 µs; Read A: Excitation filter 320 ([25]) nm, Emission filter 610 ([25]) nm, Gain 130; Read B: Excitation filter 320 ([25]) nm, Emission filter 665 ([8]) nm, Gain 165. […]
Human FKBP12 coding sequence was cloned a pET-47b bacterial expression vector using Gibson assembly and a C-terminal HA-tag was added by QuickChange PCR. FKBP12 proteins were expressed as 8xHis fusions in E. coli BL21 (DE3) cells. […]
PAMPA was performed by Quintara Discovery as described previously (2). Compounds were analyzed at 100 µM in PBS and measured using liquid chromatography-mass spectrometry (LC-MS) after 5 hours. […]

[2] = tested on: Flp-In 293 cells with and without FKBP12 V55G-HA; assay: Cell growth by CellTiter-Glo in Flp-In 293 cells; assay type: cell-based, human; conditions: 72 h treatment
Experimental: All cell lines were maintained in DMEM (Gibco) supplemented with 10% heat-inactivated FBS (Axenia Biologix) at 37 °C in 5% CO2. Flp-In T-REx 293 cells were obtained from Thermo Fisher supplemented with 15 µg/mL blasticin and 100 µg/mL Zeocin. […] When indicated, cells were treated with drugs at 60–80% confluency at a final DMSO concentration of 0.1%.
Cells were seeded into 96-well tissue-culture treated plates (Greiner) and were allowed to incubate for 24 h. Cells were treated with indicated compounds and incubated for 72 h (100 µL final well volume, 0.1% DMSO). Cell viability was assessed by CellTiter-Glo (Promega). Assay reagent was diluted 1:4 in PBS containing 1% Triton X-100, and 100 µL was added to each well and mixed on a plate shaker for 20 min. Luminescence was measured on a Tecan Spark 20M.

[3] = Bidirectional Caco-2 cell permeability; assay type: in vitro ADME; conditions: human, LC-MS
Experimental: PAMPA and Caco-2 membrane permeability assays […]
MS) after 5 hours. Bidirectional Caco-2 cell permeability assay was performed by Quintara
Discovery. Compounds were analyzed at 10 µM and measured by LC-MS after 1 hour.

[4] = tested on: Drosophila larvae (w1118 control and FKBP12 V55G transgenic); assay: Drosophila larval development (pupae 9 d after egg laying); assay type: in vivo
Experimental: All Drosophila stocks and crosses were maintained on standard cornmeal-molasses food at 25 °C using a 12-h light/dark cycle. To generate UAS-FKBP12 V55G-HA transgenic lines, human FKBP12 V55G-HA ORF was cloned into a pUAST-attB vector between EcoR-I and Xho-I restriction sites. This construct was then integrated into an attB site using phiC31 integrase with the assistance of Rainbow Transgenic Flies, Inc. The driver stocks da-GAL4 (ubiquitous), elav-GAL4 and nSyb-GAL4 (neuronal-specific), Mef2-GAL4 and mhc-GAL4 (musculature), and 2–286-GAL4 and phm-GAL4 (ring-gland-specific) were obtained from Bloomington Drosophila Stock Center. The crossing schemes used in this study are depicted in SI Appendix, Fig. S11. For rapamycin or Rapa*3Z related experiments, fly food was prepared freshly 24 h before each experiment.
Fly food containing ethanol vehicle was used as control. […] Three biological replicates were used for each experiment. Data were analyzed using Prism 9.0 (GraphPad).

[5] = PAMPA membrane permeability; assay type: in vitro ADME; conditions: 100 µM in PBS, LC-MS
Experimental: PAMPA and Caco-2 membrane permeability assays
PAMPA was performed by Quintara Discovery as described previously (2). Compounds were
analyzed at 100 µM in PBS and measured using liquid chromatography-mass spectrometry (LC-

T1 sequence (P62942 whole entry, the tested form may be a part): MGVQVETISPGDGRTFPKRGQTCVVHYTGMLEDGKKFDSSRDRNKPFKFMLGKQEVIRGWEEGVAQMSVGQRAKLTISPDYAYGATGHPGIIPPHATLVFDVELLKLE
T1 sequence (P42345 2012-2144 limits assumed): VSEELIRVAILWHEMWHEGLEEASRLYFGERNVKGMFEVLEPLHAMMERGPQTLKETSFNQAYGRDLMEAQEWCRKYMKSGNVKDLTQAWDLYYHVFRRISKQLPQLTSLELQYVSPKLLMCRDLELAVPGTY

Compound: CCO/N=C1/C[C@@H]([C@H](C)C[C@@H]2CC[C@@H](O)[C@H](OC)C2)OC(=O)[C@@H]2CCCCN2C(=O)C(=O)[C@]2(O)O[C@@H](CC[C@H]2C)C[C@H](OC)/C(C)=C/C=C/C=C/[C@@H](C)C[C@@H](C)C(=O)[C@H](OC)[C@H](O)/C(C)=C/[C@H]1C [Rapa*-3Z]
- EC50 [1]: 639 nM
- Cell growth inhibition, 293 cells with and without FKBP12 V55G [2]: selectively inhibited growth of mutant-expressing 293 cells
- Papp A→B at 1 h, 10 µM [3]: < 0.5 ×10⁻⁶ cm/s
- Papp B→A at 1 h, 10 µM [3]: 1 ×10⁻⁶ cm/s
- Larval-to-pupal transition, FKBP12 V55G in ring gland (independent driver) ([4]; 2-286-GAL4, 100 µM, 9 d): nearly eliminated the larval-to-pupal transition
- Dose necessary for complete inhibition of larval development ([4]; FKBP12 V55G animals (ubiquitous da-GAL4), in food, 9 d after egg laying): 100 µM
- Larval-to-pupal transition, FKBP12 V55G in musculature and nervous system (independent drivers) ([4]; Mef2-GAL4 and elav-GAL4, 100 µM, 9 d): significant, but lesser, inhibition
- Effect on larval development, ubiquitous FKBP12 V55G expression ([4]; da-GAL4 > FKBP12 V55G, 100 µM): potently inhibited larval development
- Pupal formation, FKBP12 V55G in musculature and nervous system ([4]; mhc-GAL4 and nSyb-GAL4, 100 µM, 9 d after egg laying): similar, but less severe, inhibition of pupal formation
- Pupal formation, FKBP12 V55G in ring gland ([4]; phm-GAL4, 100 µM, 9 d after egg laying): failed to pupate
- Effect on larval development in control flies at 300 and 400 µM ([4]; w1118, 300 and 400 µM, 14 days after egg laying): no influence on larval development
- Effect on larval development in wild-type animals ([4]; wild-type (w1118) larvae, compound in food): no effect
- Papp at 5 h, 100 µM [5]: 0.053 ×10⁻⁶ cm/s
